# Data reported in patent US20100074884A1, “INHIBITION OF NEURONAL DAMAGE” (DUSKA SCIENTIFIC CO., priority 2005, published 2010).
# Assays:
# RGCs [1] = assay: Application of ATP or P2X7 agonist to isolated rat retinas, RGC damage; assay type: cell-based
# Description: (§1) Adult animals were decapitated and the retinas quickly dissected, flattened onto nitrocellulose filters, and maintained in oxygenated ACSF. Individual RGCs were labeled by shooting 1.3 μm tungsten particles coated with Oregon Green 488 conjugated dextran (Molecular Probes, Inc., Eugene, Oreg.) into the retina using a gene gun (Bio-Rad Laboratories, Hercules, Calif.; Kettunen, et al. (2002) J. Neurosci. Methods 119:37-43). Individual RGCs were imaged by placing the retinas in oxygenated ACSF within a custom-made 4 ml observation chamber on the stage of a Zeiss Axioplan fluorescence microscope equipped with a black and white CCD camera (Chroma DTA, Pisa, Italy). Observations were performed at room temperature (25-28° C.). A 40× Olympus immersion objective (N.A. 0.80) was used and excitation light was kept below 10% of its maximum intensity. Less than 5 RGCs per retina were analyzed to minimize light exposure. Loss of membrane integrity was assessed by adding 1.5 μM PI to the ACSF for 1 minute. Exposure of phospatidylserine on the outer membrane leaflet was evidenced by a 20 minute incubation in ACSF containing 3 μg/ml Cy3-Annexin V. In some experiments, RGCs were preincubated with oxidized-ATP (oATP) for 2 hours or with Brilliant BlueG (BBG) for 30 minutes prior to imaging.
# Incubation of isolated rat retinas in 1 mM ATP induced the same effects obtained with repeated pressure increments, causing cell blebbing and uptake of PI in all the RGCs tested (35/35 tested) within 1 hour, except in α-type RGCs (0/15). The same effects were obtained applying the potent P2X7 receptor agonist 2′,3′-benzoyl-4-benzoyl-ATP (BzATP; 0.1 mM; 10/10 non-α-RGCs).
# RGCs [2] = assay: Pressure-induced RGC damage in isolated rat retinas (pressure controlled incubation, imaging of living RGCs); assay type: cell-based; settings: for signs of pressure induced RGC damage: 7×90 (7 one-minute pulses at 90 mm Hg, then 1 hour at 12 mm Hg), 30 U/ml apyrase, 300 μM oATP or 0.5 μM BBG
# Experimental: Pressure controlled incubation: A free-standing bioreactor chamber was used for incubation of living retinas (e.g., rat retinas) in artificial cerebrospinal fluid (ACFS; Stacy et al. (2003) J. Comp. Neurol. 456:154-166) under controlled temperature (33±0.5° C.; pH 7.4±0.1), and hydrostatic pressure conditions (10-90 mm Hg, resolution 2 mm Hg; Previti, et al. (2002) IEEE-EMBS Special Topic conference on Molecular, Cellular and Tissue Engineering, 1:157-158). Rat retinas were allowed to stabilize at 12 mm Hg for 5 minutes, and 1 minute pressure increments were applied, reaching a peak value in less than 20 seconds. Consecutive pressure transients were separated by 1 minute at 12 mm Hg. Hydrostatic pressure and pH were regulated by electronically controlled air/CO2 admission in the incubator chamber.
# Imaging living RGCs: Experiments were performed on Long Evans rats according to the ARVO and national regulation on animal experimentation. All chemicals were obtained from Sigma (St. Louis, Mo.) unless otherwise specified.
# as §1
# RGC were incubated with the following agents: 30 U/ml apyrase (an enzyme that degrades extracellular ATP; North, supra); 300 μM oATP (an irreversible blocker of P2X receptors; North, supra); or 0.5 μM BBG (a selective and reversible inhibitor of rat P2X7 receptors; North, supra).
# RGCs [3] = assay: Prevention of ATP-induced RGC damage in isolated rat retinas by P2X blockers; assay type: cell-based; settings: 2 hour preincubation in ACSF containing 300 μM oATP or 0.5 μM BBG
# Description: as §1, with “In some experiments, RGCs were preincubated with oxidized-ATP (oATP) for 2 hours or with Brilliant BlueG (BBG) for 30 minutes prior to imaging.” left out
# Incubation of isolated rat retinas in 1 mM ATP induced the same effects obtained with repeated pressure increments, causing cell blebbing and uptake of PI in all the RGCs tested (35/35 tested) within 1 hour, except in α-type RGCs (0/15). […]
# RGCs [4] = assay: Pressure transients in vivo, PI staining of cells in the ganglion cell layer; set-up: species or system rat; settings: apyrase 30 U/ml intraocularly 5 minutes before pressure; 2 minutes at 50 mm Hg; retinas isolated after one hour
# Experimental: Pressure transients in vivo: Adult Long Evans rats were deeply anaesthetized by intraperitoneal injection with Avertine (10 ml/kg body weight, 3.3% tri-bromo-ethanol, 2% tertiary amyl-alcohol in saline) and their right eyes were incannulated with a 30 Gauge needle connected to a pressure apparatus, which was a column of ACSF held at appropriate height. Eye pressure was increased to 50 mm Hg for 2 minutes by switching on the connection between the needle and the column of ACSF. A piezo-resistive pressure sensor (RS Electronics) controlled pressure values and line tightness. […] After pressure application, the animals were returned to their cages for recovery. Retinas were isolated after one hour. Control eyes were incannulated, but no pressure transient was applied. To analyze the effects of blocking eATP in vivo, 2 μl apyrase (30 U/ml intraocular concentration) were injected intraocularly 5 minutes before pressure application. To evaluate cell damage, PI labeled cells were imaged across the retinal area in 10 evenly spaced (370×250 μm^2) sample fields per retina. This dye permits assessment of membrane integrity, as cells with reduced membrane integrity are permeable to and become stained with the dyes. Retina dissection, histological and immunocytochemical treatments for long term analysis were performed as described (Galli-Resta et al. (1997) J. Neurosci. 17:7831-7838). […]
# RGC light response = assay: Extracellular electrophysiological recordings in the optic tract, RGC light response after IOP transient; assay type: in vivo, rat
# Experimental: Extracellular electrophysiological recordings: Experimental procedures for extracellular electrophysiological recordings are as described (Caleo et al. (2003) J. Neurosci. 23(1):287-296.). Briefly, rats aged between P25 and P30 were anesthetized with urethane (20% solution in saline; 0.7 ml/100 g of body weight, i.p.; Sigma) and placed in a stereotaxic frame. Both eyes were fixed by means of adjustable metal rings surrounding the external portion of the eye bulb. Body temperature was continuously monitored and maintained at 37° C. by a thermostat-controlled electric blanket. […]
# Experiments were conducted to determine (1) whether intraocular injection of apyrase had any deleterious effects on RGC firing activity and light response, and (2) whether intraocular injection of apyrase had any effect on RGC light response recovery following a transient IOP elevation in vivo. Multi-unit spike activity evoked by a light flash was recorded in the optic tract at five minute intervals before and after an IOP pulse at 90 mmHg for 1 minute. […] Quantifying response as the average firing rate in the interval 0-2 seconds after flash onset, the average maximal response decrement was 80±16%; N=15, and the average time needed to recover at least 85% of the initial response was 32±4 minutes after the IOP spike. […]
# [5] = two hours after ATP application
compound,measurement,setting,value
"Nc1ncnc2c1ncn2[C@@H]1O[C@H](COP(=O)(O)OP(=O)(O)OP(=O)(O)O)[C@@H](O)[C@H]1O [ATP, adenosine 5′-triphosphate]","cell blebbing and uptake of PI, affected/tested RGCs","RGCs [1]; 1 mM ATP, within 1 hour, RGCs other than α-type",35/35
same,"cell blebbing and uptake of PI, affected/tested α-type RGCs","RGCs [1]; 1 mM ATP, within 1 hour, α-type RGCs",0/15
same,"cell soma shrinkage or fragmentation, RGCs",RGCs [1]; [5],10/10
same,"phosphatidylserine exposure on the external membrane (Annexin V binding), RGCs",RGCs [1]; [5],7/7
"CCOc1ccc(Nc2ccc(/C(=C3C=C/C(=[N+](/CC)Cc4cccc(S(=O)(=O)[O-])c4)C=C/3C)c3ccc(N(CC)Cc4cccc(S(=O)(=O)O)c4)cc3C)cc2)cc1 [BBG, Brilliant BlueG]",signs of pressure induced RGC damage,RGCs [2],prevented all signs of pressure induced RGC damage
same,"ATP-induced RGC damage, damaged/tested non-α-RGCs",RGCs [3],0/15
"Nc1ncnc2c1ncn2[C@@H]1O[C@H](COP(=O)(O)OP(=O)(O)OP(=O)(O)O)[C@@H](OC(=O)c2ccc(C(=O)c3ccccc3)cc2)[C@H]1O [BzATP, 2′,3′-benzoyl-4-benzoyl-ATP]","cell blebbing and uptake of PI, affected/tested non-α-RGCs",RGCs [1]; 0.1 mM BzATP,10/10
"Nc1ncnc2c1ncn2[C@@H](C=O)O[C@@H](C=O)COP(=O)(O)OP(=O)(O)OP(=O)(O)O [oATP, oxidized-ATP]",signs of pressure induced RGC damage,RGCs [2],prevented all signs of pressure induced RGC damage
same,"ATP-induced RGC damage, damaged/tested non-α-RGCs",RGCs [3],0/20
apyrase,signs of pressure induced RGC damage,RGCs [2],prevented all signs of pressure induced RGC damage
same,blebbing or permeability to PI when pressure applied,RGCs [2]; in the presence of apyrase 30 U/ml,no blebbing or permeability to PI was observed
same,pressure-induced RGC damage in vivo (PI staining),RGCs [4],totally prevented
same,spike activity before pressure application,RGC light response; apyrase 30 U/ml intraocularly,not significantly altering
same,average response recovery-time (at least 85% of initial response),"RGC light response; apyrase 30 U/ml intraocularly 1-3 hours before IOP pulse at 90 mmHg for 1 minute, N=8",11.2 ± 2.6 min
